According to patent publication US6913695B2, “Sanitization of chromatographic media” (Bayer HealthCare LLC, priority 2003, dated 2005):
Counter-ions that a name gives are not always drawn.

Key:
PrP^Sc = details: pH 3
porcine parvovirus (PPV) = experiment: Inactivation of PPV in solution by test solutions (TCID50 titration); format: cell-based
[1] = tested on: bovine viral diarrhea virus (BVDV); experiment: Column sanitization after viral clearance run, BVDV; format: cell-based; details: column treated with 7.2 M guanidine hydrochloride, pH 3.0, after a viral clearance run
Method: Solutions tested included a variety of alcohols, detergents, and chaotropic agents including guanidine hydrochloride (Table 2). […] A series of experiments were performed to identify conditions under which 8 M guanidine hydrochloride would stay in solution. […] Additionally, when mixed with virus (1 part virus:9 parts acidic guanidine hydrochloride; final guanidine hydrochloride concentration=7.2 M) inactivation to the limit of detection occurred within 30 minutes at 4° C. Similar experiments were carried out treating the benzamidine-SEPHAROSE column with 7.2 M guanidine hydrochloride, pH 3.0, following a viral clearance evaluation run.

porcine parvovirus; PPV = experiment: Porcine parvovirus clearance and sanitization across the benzamidine-SEPHAROSE column (TCID50 titration on MPK cells); format: cell-based

N=C(N)N [guanidine hydrochloride]
decrease in PrP^RES immunoreactivity, as compared to the non-treated control (PrP^Sc): ≥ 2.5 log | precipitation (8 M guanidine acidified to pH 4.0 or 3.0, 4° C.): did not precipitate | precipitation at the lower temperature (8 M guanidine, not acidified, 4° C.): precipitation occurred | time to inactivation to the limit of detection (porcine parvovirus (PPV); 1 part virus:9 parts acidic guanidine hydrochloride, final concentration 7.2 M, 4° C.): ≤ 30 min | inactivation of virus in solution (porcine parvovirus (PPV); 4 M guanidine hydrochloride, pH 3.0): effective viral inactivation | inactivation of virus in solution (porcine parvovirus (PPV); 6.5 M guanidine hydrochloride, pH 4.0, 4° C.): inactivation of virus | killing of virus (PPV) (porcine parvovirus (PPV); 8 M guanidine hydrochloride, room temperature, initial screen): effective at killing virus to the detection limit of the assay | virus inactivation on the benzamidine-SEPHAROSE column [1]: inactivation to the limit of assay detection | inactivation of chromatographic column-associated virus (benzamidine-SEPHAROSE resin) (porcine parvovirus; PPV; 7.2 M guanidine hydrochloride, pH 3.0): can be inactivated | virus inactivation on the benzamidine-SEPHAROSE column (porcine parvovirus; PPV; PPV, column treated with 7.2 M guanidine hydrochloride, pH 3.0, after a viral clearance run): inactivation to the limit of assay detection
